# Reference: patent US20040266795A1 (priority 2003, published 2004)
# Like-named read-outs stand apart in the source and are kept apart here.
# How the values were obtained:
# [1] = cited from earlier work
# [2] = Stability studies of the prepared FMC (storage, HPLC); format: physicochemical
# Experimental: The purity of famciclovir was analyzed by HPLC under the following conditions: […]
# [3] = below 85% relative humidity; cited from earlier work
# [4] = 1 month, 25° C., 75% relative humidity
# [5] = 1 month, 40° C., 75% relative humidity
# [6] = 1 month, 55° C., 75% relative humidity
# [7] = 2 month, 25° C., 75% relative humidity
# [8] = 2 month, 40° C., 75% relative humidity
# [9] = 2 month, 55° C., 75% relative humidity
# [10] = 3 months, 25° C., 75% relative humidity
# [11] = 3 months, 40° C., 75% relative humidity
# [12] = 3 months, 55° C., 75% relative humidity
# [13] = 5 months, 25° C., 75% relative humidity
# [14] = 6 months, 25° C., 75% relative humidity
# [15] = 6 months, 40° C., 75% relative humidity
# [16] = 6 months, 55° C., 75% relative humidity
substance,measurement,setting,value
"2-[2-(2-amino-9H-purin-9-yl)ethyl]-1,3-propane diacetate [famciclovir]",partition coefficient P,[1]; octanol/phosphate buffer (pH 7.4),2.08
same,partition coefficient P,[1]; octanol/water (pH 4.8),1.09
same,"Any, %",[2]; [4],0.00%
same,"Total, %",[2]; [4],0.00%
same,"Any, %",[2]; [5],0.00%
same,"Total, %",[2]; [5],0.00%
same,"Any, %",[2]; [6],0.00%
same,"Total, %",[2]; [6],0.00%
same,"Any, %",[2]; [7],0.00%
same,"Total, %",[2]; [7],0.00%
same,"Any, %",[2]; [8],0.06%
same,Appear.,[2]; [8],White
same,MH-FMC RRT 0.51 (%),[2]; [8],0.06%
same,RRT 0.80 (%),[2]; [8],<0.01%
same,RRT 0.87 (%),[2]; [8],<0.01%
same,RRT 0.89 (%),[2]; [8],0.01%
same,RRT 1.10 (%),[2]; [8],<0.01%
same,RRT 1.27 (%),[2]; [8],<0.01%
same,RRT 1.35 (%),[2]; [8],<0.01%
same,RRT 1.74 (%),[2]; [8],<0.01%
same,"Total, %",[2]; [8],0.07%
same,"Any, %",[2]; [9],0.07%
same,Appear.,[2]; [9],White
same,MH-FMC RRT 0.51 (%),[2]; [9],0.07%
same,RRT 0.80 (%),[2]; [9],<0.01%
same,RRT 0.87 (%),[2]; [9],<0.01%
same,RRT 0.89 (%),[2]; [9],0.01%
same,RRT 1.10 (%),[2]; [9],<0.01%
same,RRT 1.27 (%),[2]; [9],<0.01%
same,RRT 1.35 (%),[2]; [9],<0.01%
same,RRT 1.74 (%),[2]; [9],<0.01%
same,"Total, %",[2]; [9],0.08%
same,"Any, %",[2]; [10],0.00%
same,"Total, %",[2]; [10],0.00%
same,"Any, %",[2]; [11],0.06%
same,Appear.,[2]; [11],White
same,MH-FMC RRT 0.51 (%),[2]; [11],0.06%
same,RRT 0.80 (%),[2]; [11],<0.01%
same,RRT 0.87 (%),[2]; [11],<0.01%
same,RRT 0.89 (%),[2]; [11],0.01%
same,RRT 1.10 (%),[2]; [11],<0.01%
same,RRT 1.27 (%),[2]; [11],<0.01%
same,RRT 1.35 (%),[2]; [11],<0.01%
same,RRT 1.74 (%),[2]; [11],<0.01%
same,"Total, %",[2]; [11],0.07%
same,"Any, %",[2]; [12],0.06%
same,Appear.,[2]; [12],White
same,MH-FMC RRT 0.51 (%),[2]; [12],0.06%
same,RRT 0.80 (%),[2]; [12],<0.01%
same,RRT 0.87 (%),[2]; [12],<0.01%
same,RRT 0.89 (%),[2]; [12],0.01%
same,RRT 1.10 (%),[2]; [12],<0.01%
same,RRT 1.27 (%),[2]; [12],<0.01%
same,RRT 1.35 (%),[2]; [12],<0.01%
same,RRT 1.74 (%),[2]; [12],<0.01%
same,"Total, %",[2]; [12],0.07%
same,"Any, %",[2]; [13],0.06%
same,Appear.,[2]; [13],White
same,MH-FMC RRT 0.51 (%),[2]; [13],0.06%
same,RRT 0.80 (%),[2]; [13],0.01%
same,RRT 0.87 (%),[2]; [13],0.02%
same,RRT 0.89 (%),[2]; [13],0.01%
same,RRT 1.10 (%),[2]; [13],0.01%
same,RRT 1.27 (%),[2]; [13],0.01%
same,RRT 1.35 (%),[2]; [13],0.01%
same,RRT 1.74 (%),[2]; [13],0.01%
same,"Total, %",[2]; [13],0.14%
same,"Any, %",[2]; [14],0.06%
same,MH-FMC RRT 0.51 (%),[2]; [14],0.06%
same,RRT 0.80 (%),[2]; [14],0.01%
same,RRT 0.87 (%),[2]; [14],0.01%
same,RRT 1.27 (%),[2]; [14],0.01%
same,"Total, %",[2]; [14],0.09%
same,"Any, %",[2]; [15],0.06%
same,MH-FMC RRT 0.51 (%),[2]; [15],0.06%
same,RRT 0.80 (%),[2]; [15],0.01%
same,RRT 0.87 (%),[2]; [15],0.01%
same,RRT 1.27 (%),[2]; [15],0.01%
same,"Total, %",[2]; [15],0.09%
same,"Any, %",[2]; [16],0.06%
same,MH-FMC RRT 0.51 (%),[2]; [16],0.06%
same,RRT 0.80 (%),[2]; [16],0.01%
same,RRT 0.87 (%),[2]; [16],0.01%
same,RRT 1.27 (%),[2]; [16],0.01%
same,"Total, %",[2]; [16],0.09%
same,monohydroxy impurity content upon storage,"[2]; at least 6 months at 25° C., 40° C. or 55° C. and 75% relative humidity",does not increase
same,"Any, %",[2]; start,0.00%
same,"Total, %",[2]; start,0.00%
same,hygroscopicity,[3],not hydroscopic
